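1) Cells in 96-well plates. 2) Compound, 48 h, 5 concentrations. 3) Linear interpolation between surrounding doses. 4) Unreached endpoint = highest concentration. Here, GI50 denotes the concentration required for 50% inhibition of growth. At the TGI there is no net growth.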
Tests used:
Experiment in all cases: inhibition of tumour cell growth, NCI panel, 48 h
A549 NSCLC = system: A549 NSCLC
RPMI-8226 leukemia = system: RPMI-8226 leukemia
SK-MEL-2 melanoma = system: SK-MEL-2 melanoma
K-562 leukemia = system: K-562 leukemia
786-0 renal = system: 786-0 renal
COLO 205 colon = system: COLO 205 colon
EKVX NSCLC = system: EKVX NSCLC
UACC-62 melanoma = system: UACC-62 melanoma
NCI/ADR-RES ovarian = system: NCI/ADR-RES ovarian
RXF 393 renal = system: RXF 393 renal
OVCAR-5 ovarian = system: OVCAR-5 ovarian
SR leukemia = system: SR leukemia
NCI-H522 lung = system: NCI-H522 lung
HCC-2998 colon = system: HCC-2998 colon
OVCAR-8 ovarian = system: OVCAR-8 ovarian
OVCAR-3 ovarian = system: OVCAR-3 ovarian
BT-549 breast = system: BT-549 breast
HCT-15 colon = system: HCT-15 colon
SN12C renal = system: SN12C renal
MALME-3M melanoma = system: MALME-3M melanoma
SK-OV-3 ovarian = system: SK-OV-3 ovarian
UO-31 renal = system: UO-31 renal
MDA-MB-231 breast = system: MDA-MB-231 breast
LOX IMVI melanoma = system: LOX IMVI melanoma
NCI-H23 lung = system: NCI-H23 lung
PC-3 prostate = system: PC-3 prostate
SF-539 CNS = system: SF-539 CNS
SNB-75 CNS = system: SNB-75 CNS
NCI-H226 lung = system: NCI-H226 lung
HT29 colon = system: HT29 colon
IGROV1 ovarian = system: IGROV1 ovarian
SF-295 CNS = system: SF-295 CNS
OVCAR-4 ovarian = system: OVCAR-4 ovarian
UACC-257 melanoma = system: UACC-257 melanoma
SK-MEL-28 melanoma = system: SK-MEL-28 melanoma
M14 melanoma = system: M14 melanoma
ACHN renal = system: ACHN renal
HCT-116 colon = system: HCT-116 colon
HOP-92 NSCLC = system: HOP-92 NSCLC
A498 renal = system: A498 renal
TK-10 renal = system: TK-10 renal
HL-60(TB) leukemia = system: HL-60(TB) leukemia
MDA-MB-435 = system: MDA-MB-435
KM12 colon = system: KM12 colon
HOP-62 NSCLC = system: HOP-62 NSCLC
DU-145 prostate = system: DU-145 prostate
HS 578T breast = system: HS 578T breast
CCRF-CEM leukemia = system: CCRF-CEM leukemia
T-47D breast = system: T-47D breast
SW-620 colon = system: SW-620 colon
CAKI-1 renal = system: CAKI-1 renal
U251 CNS = system: U251 CNS

COc1cccc2c(Nc3ccc(C(=O)O)cc3)cc(-c3ccccc3)nc12
GI50 (A549 NSCLC): > 100 µM
TGI (A549 NSCLC): > 100 µM
GI50 (RPMI-8226 leukemia): > 100 µM
TGI (RPMI-8226 leukemia): > 100 µM
GI50 (SK-MEL-2 melanoma): > 100 µM
TGI (SK-MEL-2 melanoma): > 100 µM
GI50 (K-562 leukemia): > 100 µM
TGI (K-562 leukemia): > 100 µM
GI50 (786-0 renal): > 100 µM
TGI (786-0 renal): > 100 µM
GI50 (COLO 205 colon): > 100 µM
TGI (COLO 205 colon): > 100 µM
GI50 (EKVX NSCLC): > 100 µM
TGI (EKVX NSCLC): > 100 µM
GI50 (UACC-62 melanoma): > 100 µM
TGI (UACC-62 melanoma): > 100 µM
GI50 (NCI/ADR-RES ovarian): > 100 µM
TGI (NCI/ADR-RES ovarian): > 100 µM
GI50 (RXF 393 renal): > 100 µM
TGI (RXF 393 renal): > 100 µM
GI50 (OVCAR-5 ovarian): > 100 µM
TGI (OVCAR-5 ovarian): > 100 µM
GI50 (SR leukemia): > 100 µM
TGI (SR leukemia): > 100 µM
GI50 (NCI-H522 lung): > 100 µM
TGI (NCI-H522 lung): > 100 µM
GI50 (HCC-2998 colon): > 100 µM
TGI (HCC-2998 colon): > 100 µM
GI50 (OVCAR-8 ovarian): > 100 µM
TGI (OVCAR-8 ovarian): > 100 µM
GI50 (OVCAR-3 ovarian): > 100 µM
TGI (OVCAR-3 ovarian): > 100 µM
GI50 (BT-549 breast): > 100 µM
TGI (BT-549 breast): > 100 µM
GI50 (HCT-15 colon): > 100 µM
TGI (HCT-15 colon): > 100 µM
GI50 (SN12C renal): > 100 µM
TGI (SN12C renal): > 100 µM
GI50 (MALME-3M melanoma): > 100 µM
TGI (MALME-3M melanoma): > 100 µM
GI50 (SK-OV-3 ovarian): > 100 µM
TGI (SK-OV-3 ovarian): > 100 µM
GI50 (UO-31 renal): > 100 µM
TGI (UO-31 renal): > 100 µM
GI50 (MDA-MB-231 breast): > 100 µM
TGI (MDA-MB-231 breast): > 100 µM
GI50 (LOX IMVI melanoma): > 100 µM
TGI (LOX IMVI melanoma): > 100 µM
GI50 (NCI-H23 lung): > 100 µM
TGI (NCI-H23 lung): > 100 µM
GI50 (PC-3 prostate): > 100 µM
TGI (PC-3 prostate): > 100 µM
GI50 (SF-539 CNS): > 100 µM
TGI (SF-539 CNS): > 100 µM
GI50 (SNB-75 CNS): 72.3 µM
TGI (SNB-75 CNS): > 100 µM
GI50 (NCI-H226 lung): > 100 µM
TGI (NCI-H226 lung): > 100 µM
GI50 (HT29 colon): > 100 µM
TGI (HT29 colon): > 100 µM
GI50 (IGROV1 ovarian): > 100 µM
TGI (IGROV1 ovarian): > 100 µM
GI50 (SF-295 CNS): > 100 µM
TGI (SF-295 CNS): > 100 µM
GI50 (OVCAR-4 ovarian): > 100 µM
TGI (OVCAR-4 ovarian): > 100 µM
GI50 (UACC-257 melanoma): > 100 µM
TGI (UACC-257 melanoma): > 100 µM
GI50 (SK-MEL-28 melanoma): > 100 µM
TGI (SK-MEL-28 melanoma): > 100 µM
GI50 (M14 melanoma): > 100 µM
TGI (M14 melanoma): > 100 µM
GI50 (ACHN renal): > 100 µM
TGI (ACHN renal): > 100 µM
GI50 (HCT-116 colon): > 100 µM
TGI (HCT-116 colon): > 100 µM
GI50 (HOP-92 NSCLC): 39.4 µM
TGI (HOP-92 NSCLC): > 100 µM
GI50 (A498 renal): > 100 µM
TGI (A498 renal): > 100 µM
GI50 (TK-10 renal): > 100 µM
TGI (TK-10 renal): > 100 µM
GI50 (HL-60(TB) leukemia): > 100 µM
TGI (HL-60(TB) leukemia): > 100 µM
GI50 (MDA-MB-435): > 100 µM
TGI (MDA-MB-435): > 100 µM
GI50 (KM12 colon): > 100 µM
TGI (KM12 colon): > 100 µM
GI50 (HOP-62 NSCLC): > 100 µM
TGI (HOP-62 NSCLC): > 100 µM
GI50 (DU-145 prostate): > 100 µM
TGI (DU-145 prostate): > 100 µM
GI50 (HS 578T breast): > 100 µM
TGI (HS 578T breast): > 100 µM
GI50 (CCRF-CEM leukemia): > 100 µM
TGI (CCRF-CEM leukemia): > 100 µM
GI50 (T-47D breast): 84.5 µM
TGI (T-47D breast): > 100 µM
GI50 (SW-620 colon): > 100 µM
TGI (SW-620 colon): > 100 µM
GI50 (CAKI-1 renal): > 100 µM
TGI (CAKI-1 renal): > 100 µM
GI50 (U251 CNS): > 100 µM
TGI (U251 CNS): > 100 µM
